Data taken from BindingDB's records for doi:10.1021/jm070487n (Universita Degli Studi Di Bari, 2007).

Target: T1, 5-hydroxytryptamine receptor 1A (Homo sapiens, UniProt P08908)
T1 sequence (P08908 whole entry): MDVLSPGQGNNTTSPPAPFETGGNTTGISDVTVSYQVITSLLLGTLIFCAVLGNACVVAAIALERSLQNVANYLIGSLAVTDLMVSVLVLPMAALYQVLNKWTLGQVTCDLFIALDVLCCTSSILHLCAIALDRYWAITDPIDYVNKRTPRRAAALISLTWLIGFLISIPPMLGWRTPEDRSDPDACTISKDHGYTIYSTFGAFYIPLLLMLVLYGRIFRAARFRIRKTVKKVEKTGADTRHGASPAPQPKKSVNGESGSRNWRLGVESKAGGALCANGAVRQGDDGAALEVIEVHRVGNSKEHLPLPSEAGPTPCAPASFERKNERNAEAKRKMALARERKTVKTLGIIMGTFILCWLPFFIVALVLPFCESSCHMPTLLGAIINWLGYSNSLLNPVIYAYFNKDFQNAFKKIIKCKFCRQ
Experiment: Radioligand Labeled Binding Assay
Description: (§1) IC50 values for each test compound were determined from nonlinear regression analysis of data collected from ligand binding experiments. The inhibition constant (Ki) was calculated from IC50 value by the Cheng and Prusoff equation.

Ki	SMILES
8.6 nM	COc1ccccc1N1CCN(CCCCCC(=O)NC2CCCc3ccccc32)CC1 (configuration not stated)
279 nM	Cc1ccccc1N1CCN(CCCCCC(=O)NC2CCCc3ccccc32)CC1 (configuration not stated)
24 nM	O=C(CCCCCN1CCN(c2ccccc2O)CC1)NC1CCCc2ccccc21 (configuration not stated)
128 nM	O=C(CCCCCN1CCN(c2ccccc2)CC1)NC1CCCc2ccccc21 (configuration not stated)
96 nM	O=C(CCCCCN1CCN(c2ccccc2Cl)CC1)NC1CCCc2ccccc21 (configuration not stated)
16.6 nM	N#Cc1ccccc1N1CCN(CCCCCC(=O)NC2CCCc3ccccc32)CC1 (configuration not stated) [6-[4-(2-cyanophenyl)piperazin-1-yl]-N-(1,2,3,4-tetrahydronaphthalen-1-yl)hexanamide]

Further lines, the compound ahead of its results:

SMILES	Ki
CSc1ccccc1N1CCN(CCCCCC(=O)NC2CCCc3ccccc32)CC1 (configuration not stated)	52.7 nM
CC(=O)c1ccccc1N1CCN(CCCCCC(=O)NC2CCCc3ccccc32)CC1 (configuration not stated)	3.85 nM
CS(=O)(=O)c1ccccc1N1CCN(CCCCCC(=O)NC2CCCc3ccccc32)CC1 (configuration not stated)	3120 nM
NC(=O)c1ccccc1N1CCN(CCCCCC(=O)NC2CCCc3ccccc32)CC1 (configuration not stated) [2-{4-[5-(1,2,3,4-tetrahydronaphthalen-1-ylcarbamoyl)pentyl]piperazin-1-yl}benzamide]	494 nM
O=C(CCCCCN1CCN(c2ccccc2[N+](=O)[O-])CC1)NC1CCCc2ccccc21 (configuration not stated) [6-[4-(2-nitrophenyl)piperazin-1-yl]-N-(1,2,3,4-tetrahydronaphthalen-1-yl)hexanamide]	183 nM

Target: 5-hydroxytryptamine receptor 2A (Rattus norvegicus, UniProt P14842)
Experiment: Radioligand Labeled Binding Assay
Description: as §1

Chain of 5-hydroxytryptamine receptor 2A (P14842 whole entry): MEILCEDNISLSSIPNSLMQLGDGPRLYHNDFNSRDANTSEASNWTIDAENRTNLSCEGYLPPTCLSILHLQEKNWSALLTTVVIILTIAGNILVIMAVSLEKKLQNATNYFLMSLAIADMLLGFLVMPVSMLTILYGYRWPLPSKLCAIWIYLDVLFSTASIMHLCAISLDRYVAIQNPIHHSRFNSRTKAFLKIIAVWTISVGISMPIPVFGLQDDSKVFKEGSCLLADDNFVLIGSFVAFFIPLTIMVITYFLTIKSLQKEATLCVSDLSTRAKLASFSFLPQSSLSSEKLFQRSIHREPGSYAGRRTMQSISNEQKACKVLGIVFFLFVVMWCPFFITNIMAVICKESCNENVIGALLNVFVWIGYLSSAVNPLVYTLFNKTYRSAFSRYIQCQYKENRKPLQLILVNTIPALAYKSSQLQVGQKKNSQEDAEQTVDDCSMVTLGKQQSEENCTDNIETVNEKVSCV

Ki	SMILES
1260 nM	COc1ccccc1N1CCN(CCCCCC(=O)NC2CCCc3ccccc32)CC1 (configuration not stated)
